Data published in patent EP3696281A1, “ARGINASE AS BIOMARKER AND DRUG TARGET FOR PCOS” (Johann Wolfgang Goethe-Universität Frankfurt am Main, priority 2019, dated 2020).

What was measured:
[1] = system: washed human platelets; experiment: Aggregation of washed human platelets elicited by thrombin or U46619 (aggregometer); format: cell-based; conditions: 5 minutes; for thrombin or thromboxane A2 analogue-induced aggregation of platelets: arginine 1 mmol/L, alone; for effect of pre-treatment with arginase inhibitor on arginine-mediated inhibition of platelet aggregation: pre-incubation with inhibitor (Nor-NOHA 100 µmol/L, 30 minutes), then arginine 1 mmol/L, thrombin or U46619
Text: (§1) Levels of ornithine (A), arginine (B), and the ratio of ornithine to arginine (C) in plasma from healthy donors or from PCOS patients, n= 22 (Student's t test). (D) Arginase activity in plasma from healthy donors or from PCOS patients, n=16 (Student's t test). (E) Levels of arginase-i in plasma from healthy donors or from PCOS patients, n=16 (Student's t test). (F) Levels of arginase-i in plasma from healthy donors or from PCOS patients in the presence or in the absence of microparticles, n=16 (ANOVA and Newman-Keuls post-test). (G) Levels of platelet-derived microparticles (PMPs) in plasma from healthy donors or from PCOS patients, n=17 (Student's t test). (H) Levels of arginase-i measured by flow cytometry in PMPs from healthy donors and from PCOS patients, n=17.
Human platelets were obtained by centrifugation (900g, 7 minutes) of platelet-rich plasma, as described. […] The resulting platelet-poor plasma was collected and frozen at -80°C for further evaluation.
Platelet aggregation. Aggregation of washed human platelets (4x10^8platelets/mL) was measured using an 8-channel aggregometer (PAP8, Mölab, Germany).

[2] = system: arginase; experiment: Arginase activity in platelets incubated with arginase inhibitor, then lysed (MAK112 kit); format: cell-based, human; conditions: 30 minutes, P<0.05
Text: as §1, with “n=17. […]” for “n=17.”
Given that platelets are the main source of plasma arginase in PCOS patients, the effect of arginase inhibitor on platelet arginase activity and function was assessed. […]
Arginase activity was determined in plasma or in platelets using commercially available kits (MAK112, Sigma, Steinheim, Germany), according to manufacturer's instructions.

SMILES	thrombin or thromboxane A2 analogue-induced aggregation of platelets ([1]; platelets from PCOS patients)	thrombin or thromboxane A2 analogue-induced aggregation of platelets ([1]; platelets from healthy donors)	effect of pre-treatment with arginase inhibitor on arginine-mediated inhibition of platelet aggregation ([1]; platelets from PCOS patients)	effect of pre-treatment with arginase inhibitor on arginine-mediated inhibition of platelet aggregation ([1]; platelets from healthy donors)	arginase activity ([2]; platelets incubated with nor-NOHA 100 µmol/L)	arginase activity ([2]; platelets incubated with L-norvaline 10 mmol/L)
N=C(N)NCCC[C@H](N)C(=O)O [arginine]	did not affect the aggregation	inhibited thrombin or thromboxane A2 analogue-induced aggregation				
N=C(NO)NCC[C@H](N)C(=O)O [NorNOHA, Nω-hydroxy-nor-L-arginine]			significantly revealed the inhibitory effects of arginine	did not have additional effect on arginine-mediated platelet inhibition	significantly inhibited arginase activity	
CCC[C@H](N)C(=O)O [L-norvaline]			significantly revealed the inhibitory effects of arginine	did not have additional effect on arginine-mediated platelet inhibition		significantly inhibited arginase activity
